Among the data in patent US9783488B2 (CHDI Foundation, Inc., priority 2013, dated 2017) are IC50 values, retold here.

human catalytic domain HDAC4 protein (amino acids 648-1032), sequence (P56524 648-1032): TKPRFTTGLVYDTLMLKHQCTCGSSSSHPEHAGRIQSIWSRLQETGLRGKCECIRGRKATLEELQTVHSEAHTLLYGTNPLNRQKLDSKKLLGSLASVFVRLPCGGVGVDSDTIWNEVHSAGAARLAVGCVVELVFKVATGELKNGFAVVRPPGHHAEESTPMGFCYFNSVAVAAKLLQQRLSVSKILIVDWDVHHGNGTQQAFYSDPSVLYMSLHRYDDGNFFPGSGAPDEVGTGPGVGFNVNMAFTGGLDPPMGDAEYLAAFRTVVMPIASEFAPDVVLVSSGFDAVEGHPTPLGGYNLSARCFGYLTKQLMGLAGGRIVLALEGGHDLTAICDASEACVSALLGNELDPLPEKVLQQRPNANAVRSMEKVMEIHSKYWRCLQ

In one assay the target is human catalytic domain HDAC4 protein (amino acids 648-1032) (Homo sapiens (Human), UniProt P56524). As to the kind of experiment: Inhibition of HDAC4 catalytic domain enzymatic activity, fluorogenic substrate Boc-Lys(Tfa)-AMC. Conditions: HDAC4 catalytic domain enzyme, read-out: Biochemical HDAC4 IC50. The text has this:
Analysis of Inhibition of HDAC4 with Class IIa Histone Deacetylase (HDAC) Inhibitors
The potency of Class IIa Histone Deacetylase (HDAC) inhibitors is quantified by measuring the Histone Deacetylase 4 (HDAC4) catalytic domain enzymatic activity using the fluorogenic substrate, Boc-Lys(Tfa)-AMC. The substrate is deacetylated to Boc-Lys-AMC by HDAC4. Cleavage by trypsin results in the release of the fluorophore AMC from the deacetylated substrate. The fluorescence of the sample is directly related to the histone deacetylase activity in the sample.
Serially dilute HDAC inhibitor compounds. […] Stocks of 6 μl aliquots of the 10 mM compound in DMSO are prepared and stored at […]. From one stock aliquot of each compound to be tested and the reference compound, a 16-point serial dilution is prepared according to Table 1 using a 125 μl 16-channel Matrix multi-channel pipette (Matrix Technologies Ltd).
2 μl (200×) of each diluted solution and each control (full activity: 100% DMSO alone or full inhibition 1 mM) is stamped into V-bottomed polypropylene 384-well compound plates using either the Bravo (384-well head from Agilent) or 12.5 μl 16-channel Matrix multi-channel pipette (Matrix Technologies Ltd).
Prepare HDAC4 catalytic domain enzyme (0.2 μg/mL).
Prepare 5× ([…]) Boc-Lys(Tfa)-AMC Substrate. 5× (50 μM) substrate is prepared just prior to the addition to the assay. A 1 mM substrate stock is made by diluting a 100 mM Boc-Lys(Tfa)-AMC in DMSO solution 1:100 by adding it drop-wise to assay buffer (equilibrated to r.t.) while vortexing at slow speed to prevent precipitation. The 5× substrate is prepared by diluting the 1 mM substrate solution 1:20 by adding it drop-wise to assay buffer (equilibrated to r.t.) while vortexing at slow speed to prevent precipitation.
Prepare 3× (30 μM) Developer/Stop Solution.
Assay. 5 μl of each solution of 1:20 diluted compound from above is transferred to a clear bottomed, black, 384-well assay plate using the Bravo or the Janus (384-well MDT head from Perkin Elmer). Using a 16-channel Matrix multi-channel pipette, 35 μl of the working solution of HDAC4 catalytic domain enzyme (0.2 μg/mL in assay buffer) is transferred to the assay plate. […] The assay plate is then shaken for two minutes on an orbital shaker at 900 rpm (rotations per minute). Next the plate is incubated for 15 minutes at 37° C. The reaction is stopped by adding 25 μl of 3× (3 μM) developer/stop solution to the assay plates using either the Bravo, Janus or a 16-channel Matrix multi-channel pipette. Assay plates are then shaken for 5 minutes on an orbital shaker at 1200 rpm. Next, the assay plates are incubated at 37° C. for 1 hour in a tissue culture incubator.
With `Cc1c(F)cccc1C1(C(=O)NO)CCC2(CCOCC2)C1` (racemic) [Example 105, (±)-2-(3-fluoro-2-methylphenyl)-N-hydroxy-8-oxaspiro[4.5]decane-2-carboxamide], the concentration for half-maximal inhibition (IC50) was 1400 nM.
Same read-out and setting: the value for `Cc1c(F)cccc1[C@]1(C(=O)NO)CC[C@@H](c2cncnc2)C1` (relative stereo) [Example 2, (±)-(1S*,3R*)-1-(3-fluoro-2-methylphenyl)-N-hydroxy-3-(pyrimidin-5-yl)cyclopentanecarboxamide] was 290 nM.

The next assay deals with cellular histone deacetylase enzymatic activity in Jurkat E6-1 cells. Kind of assay: Inhibition of cellular HDAC activity in Jurkat E6-1 cells, fluorogenic substrate Boc-Lys(Tfa)-AMC. The settings on record: Homo sapiens, read-out: Cell IC50. The format is cell-based. The text has this:
Analysis of Inhibition of Cellular HDAC Activity with Class IIa Histone Deacetylase (HDAC) Inhibitors
The potency of Class IIa Histone Deacetylase (HDAC) inhibitors is quantified by measuring the cellular histone deacetylase enzymatic activity using the fluorogenic substrate, Boc-Lys(Tfa)-AMC. After penetration in Jurkat E6-1 cells, the substrate is deacetylated to Boc-Lys-AMC. After cell lysis and cleavage by trypsin, the fluorophore AMC is released from the deacetylated substrate only. The fluorescence of the sample is directly related to the histone deacetylase activity in the sample.
Jurkat E6.1 cell culture and plating. Jurkat E6.1 cells are cultured according to standard cell culture protocols in Jurkat E6.1 Growth Media (RPMI without phenol red, 10% FBS, 1 mM HEPES, and 1 mM Sodium Pyruvate). Jurkat E6.1 cells are counted using a Coulter Counter and resuspended in Jurkat E6.1 growth media at a concentration of 75,000 cells/35 μl. 35 μl or 75,000 cells is seeded into Greiner microtitre assay plates. The plates are then incubated at 37° C. and 5% CO2 while other assay components are being prepared.
Serially dilute HDAC inhibitor compounds. Serial dilutions of the HDAC inhibitors and control reference compound (1-(5-(3-((4-(1,3,4-oxadiazol-2-yl)phenoxy)methyl)-1,2,4-oxadiazol-5-yl)thiophen-2-yl)-2,2,2-trifluoroethanone) are made by first resuspending the lyophilized compound to a final concentration of 10 mM in […]. Stocks of 70 μl aliquots of the 10 mM compound in DMSO are prepared and stored at −20° C. From one stock aliquot of each compound to be tested and the reference compound, a 16-point serial dilution is prepared according to Table 1 using a 125 μl 16-channel Matrix multi-channel pipette.
2 μl (200×) of each diluted solution and each control (full activity: 100% DMSO alone or full inhibition 1 mM) is stamped into V-bottom polypropylene 384-well compound plates using either the Bravo, Janus, or 12.5 μl 16-channel Matrix multi-channel pipette. Each well with the 200× compound solution is diluted 1:20 by the addition of 38 μl Jurkat assay buffer+DMSO (9.5% DMSO, RPMI without phenol red, 0.09% FBS, 9 mM Hepes, and 0.9 mM Sodium Pyruvate equilibrated to r.t.)
Prepare 5× (500 μM) Boc-Lys(Tfa)-AMC substrate. 5× (500 μM) substrate is prepared just prior to the addition to the assay. The 5× substrate is prepared by diluting a 100 mM Boc-Lys(Tfa)-AMC in DMSO solution 1:200 by adding it drop-wise to Jurkat assay medium (RPMI without phenol red, 0.1% FBS, 10 mM Hepes, and 1 mM Sodium Pyruvate equilibrated to 37° C.) while vortexing at slow speed to prevent precipitation.
Prepare 3× Lysis Buffer. 10 mL of 3× lysis buffer is prepared with 8.8 mL of 3× stock lysis buffer (50 mM Tris-HCl, pH 8.0, 137 mM NaCl, 2.7 mM KCl, 1 mM MgCl2, 1% Nonidet P40 Substitute equilibrated to r.t.) and 1.2 mL of 3 mg/mL Trypsin equilibrated to r.t.
Assay. 5 μl of each solution of 1:20 diluted compound from above is transferred to the Greiner microtitre assay plates with 75,000 cells/well using the Bravo. Cells are then incubated for 2 hours at 37° C. and 5% CO2. The assay is then started by adding 10 μl of 5× (500 μM) substrate to the assay plate using either the Bravo or 16-channel Matrix multi-channel pipette. The cells are then incubated for 3 hours at 37° C. and 5% CO2. Next, 25 μl of 3× lysis buffer is added to each well using either the 125 μl 16 channel pipette or the Bravo. The assay plate is then incubated overnight (15-16 hours) at 37° C. and 5% CO2. The following day, the plates are shaken on an orbital shaker for 1 minute at 900 rpm. Finally the top read fluorescence (Excitation: 355 nm, Emission: 460 nm) is measured using PerkinElmer EnVision.
As for `Cc1c(F)cccc1C1(C(=O)NO)CCC2(CCOCC2)C1` (racemic) [Example 105, (±)-2-(3-fluoro-2-methylphenyl)-N-hydroxy-8-oxaspiro[4.5]decane-2-carboxamide], the IC50 was 12000 nM.
The same measure, in the same setting: as for `Cc1c(F)cccc1[C@]1(C(=O)NO)CC[C@@H](c2cncnc2)C1` (relative stereo) [Example 2, (±)-(1S*,3R*)-1-(3-fluoro-2-methylphenyl)-N-hydroxy-3-(pyrimidin-5-yl)cyclopentanecarboxamide], the figure is 1910 nM.
The same measure, in the same setting: as for `Cc1ccccc1[C@H]1CC[C@@](C(=O)NO)(c2cccc(F)c2C)C1` (relative stereo) [Example 8, (±)-(1S*,3S*)1-(3-fluoro-2-methylphenyl)-N-hydroxy-3-(o-tolyl)cyclopentane carboxamide], the figure is 480 nM; as for `Cc1c(F)cccc1[C@]1(C(=O)NO)CC[C@@H](c2cnn(CCN3CCOCC3)c2)C1` (relative stereo) [Example 47, (1S,3R*)-1-(3-fluoro-2-methylphenyl)-N-hydroxy-3-(1-(2-morpholinoethyl)-1H-pyrazol-4-yl)cyclopentanecarboxamide], 830 nM; as for `CCN(CC)CCn1cc([C@@H]2CC[C@@](C(=O)NO)(c3cccc(F)c3C)C2)cn1` (relative stereo) [Example 51, (1S,3R*)-3-(1-(2-(diethylamino)ethyl)-1H-pyrazol-4-yl)-1-(3-fluoro-2-methylphenyl)-N-hydroxycyclopentanecarboxamide], 290 nM.
Same read-out and setting: as for `CCCN(CCC)C[C@@H](C)NC(=O)c1ccc([C@@H]2CC[C@@](C(=O)NO)(c3cccc(F)c3C)C2)cc1` (relative stereo) [Example 52, N—((R)-1-(dipropylamino)propan-2-yl)-4-((1R*,3S)-3-(3-fluoro-2-methylphenyl)-3-(hydroxycarbamoyl)cyclopentyl)benzamide], the figure is 180 nM.
For `CCCN(CCC)C[C@@H](C)NC(=O)c1ccc([C@H]2CC[C@@](C(=O)NO)(c3cccc(F)c3C)C2)cc1` (relative stereo) [Example 53, N—((R)-1-(dipropylamino)propan-2-yl)-4-((1S*,3S)-3-(3-fluoro-2-methylphenyl)-3-(hydroxycarbamoyl)cyclopentyl)benzamide], the IC50 is 150 nM.
Still for that read-out and setting: the value for `Cc1c(F)cccc1[C@]1(C(=O)NO)CC[C@@H](c2ccc3c(c2)CN(C2CC2)C3=O)C1` (relative stereo) [Example 59, (1S,3R*)-3-(2-cyclopropyl-1-oxoisoindolin-5-yl)-1-(3-fluoro-2-methylphenyl)-N-hydroxycyclopentanecarboxamide] was 190 nM; that for `Cc1c(F)cccc1[C@]1(C(=O)NO)CC[C@H](c2ccc3sc(C4CC4)nc3c2)C1` (relative stereo) [Example 79, (1S,3S*)-3-(2-Cyclopropylbenzo[d]thiazol-5-yl)-1-(3-fluoro-2-methylphenyl)-N-hydroxycyclopentanecarboxamide] was 380 nM; that for `Cc1c(F)cccc1[C@]1(C(=O)NO)CC[C@@H](c2ccc3sc(C4CC4)nc3c2)C1` (relative stereo) [Example 80, (1 S,3R*)-3-(2-Cyclopropylbenzo[c]thiazol-5-yl)-1-(3-fluoro-2-methylphenyl)-N-hydroxycyclopentanecarboxamide] was 380 nM.
Take `Cc1c([C@]2(C(=O)NO)CC[C@@H](c3ccc4cnn(C)c4c3)C2)ccc(F)c1F` (relative stereo) [Example 86, (1S,3R*)-1-(3,4-difluoro-2-methylphenyl)-N-hydroxy-3-(1-methyl-1H-indazol-6-yl)cyclopentanecarboxamide]: the IC50 was determined as 160 nM.
Still for that read-out and setting: as for `Cc1c(F)cccc1[C@]1(C(=O)NO)CC[C@@H](N2CCCC2)C1` (relative stereo) [Example 87, (1 S,3R*)-1-(3-fluoro-2-methylphenyl)-N-hydroxy-3-(pyrrolidin-1-yl)cyclopentanecarboxamide], the figure is more than 50000 nM; as for `Cc1c(F)cccc1[C@]1(C(=O)NO)CC[C@H](N2CCCC2)C1` (relative stereo) [Example 88, (1 S,3S*)-1-(3-fluoro-2-methylphenyl)-N-hydroxy-3-(pyrrolidin-1-yl)cyclopentanecarboxamide], more than 50000 nM; as for `Cc1c(F)cccc1[C@@]1(C(=O)NO)CC[C@H](c2ccccc2)C1` (stereo in doubt) [Example 4, (1R*,3S*)-1-(3-fluoro-2-methylphenyl)-N-hydroxy-3-phenylcyclopentanecarboxamide], 440 nM.
The same measure, in the same setting: the value for `Cc1c(F)cccc1[C@]1(C(=O)NO)CC[C@@H](c2ccccc2)C1` (stereo in doubt) [Example 5, (1S*,3R*)-1-(3-fluoro-2-methylphenyl)-N-hydroxy-3-phenylcyclopentanecarboxamide] was 7850 nM.
On the same count and under the same terms, the value for `Cc1c(F)cccc1[C@]1(C(=O)NO)CC[C@H](c2ccccc2)C1` (stereo in doubt) [Example 6, (1S*,3S*)-1-(3-fluoro-2-methylphenyl)-N-hydroxy-3-phenylcyclopentanecarboxamide] was 610 nM.
In the case of `Cc1c(F)cccc1[C@@]1(C(=O)NO)CC[C@@H](c2ccccc2)C1` (stereo in doubt) [Example 7, (1R*,3R*)-1-(3-fluoro-2-methylphenyl)-N-hydroxy-3-phenylcyclopentanecarboxamide], the IC50 amounted to 1120 nM.
